The text below walks through data of patent US12528802B2, “Heterocyclic compound” (Takeda Pharmaceutical Company Limited, priority 2019, dated 2026).

Molecules are shown by their SMILES.

This test deals with T1, glucosylceramide synthase (Homo sapiens, UniProt Q16739).
T1 construct: made in house; host or cells: Expi293F cells (transient expression, pcDNA3.3-TOPO vector); microsome fraction used as enzyme source
T1 sequence (Q16739 1-394): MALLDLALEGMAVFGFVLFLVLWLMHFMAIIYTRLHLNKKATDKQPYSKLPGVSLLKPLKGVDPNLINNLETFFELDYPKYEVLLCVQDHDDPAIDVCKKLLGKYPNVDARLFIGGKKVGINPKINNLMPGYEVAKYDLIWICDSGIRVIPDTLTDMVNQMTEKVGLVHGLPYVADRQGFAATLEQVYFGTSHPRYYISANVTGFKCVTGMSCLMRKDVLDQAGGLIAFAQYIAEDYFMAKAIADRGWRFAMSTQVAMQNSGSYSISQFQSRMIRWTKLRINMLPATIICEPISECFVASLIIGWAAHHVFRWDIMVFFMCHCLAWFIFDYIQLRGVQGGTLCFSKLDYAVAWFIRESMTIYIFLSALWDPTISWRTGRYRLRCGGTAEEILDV
In words: Glucosylceramide synthase (GCS) enzyme assay, microsome fraction, C8 glucosylceramide quantified by Rapidfire MS/MS. Type of test: biochemical. The conditions noted are these: test compound 10 μM; 1.7 μM UDP-glucose, 3 μM C8 ceramide; room temperature 60 min; read-out: GCS enzyme inhibitory rate at 10 μM (%) (% of control). In outline: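 Test compound, 10 μM final, was run against human GCS from transfected Expi293F microsome fractions, using substrate solution of 6 μM C8 ceramide (in DOPC liposomes) plus 3.4 μM UDP-glucose, pH 7.5 Tris buffer, 60 min, room temperature. Product C8 glucosylceramide measured by Rapidfire MS/MS against an internal standard, % inhibition referenced to no-enzyme and DMSO wells.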
For `O=C1c2ccnc(-c3ccc(F)cc3OCC(F)(F)F)c2CN1c1ccc(C2(O)CCOCC2)cn1` [Example 257, 4-[4-fluoro-2-(2,2,2-trifluoroethoxy)phenyl]-2-[5-(4-hydroxyoxan-4-yl)pyridin-2-yl]-2,3-dihydro-1H-pyrrolo[3,4-c]pyridin-1-one], the inhibition at 10 µM was 99%. For `CC(=O)N1CC(O)(c2ccc(N3Cc4c(ccnc4-c4ccccc4OCC(F)(F)F)C3=O)cc2)C1` [Example 258, 2-[4-(1-acetyl-3-hydroxyazetidin-3-yl)phenyl]-4-[2-(2,2,2-trifluoroethoxy)phenyl]-2,3-dihydro-1H-pyrrolo[3,4-c]pyridin-1-one] the value was 70%. The result for `O=C1c2ccnc(-c3ccccc3OCC(F)(F)F)c2CN1c1ccc(C2(O)CNC2)cc1` [Example 259, 2-[4-(3-hydroxyazetidin-3-yl)phenyl]-4-[2-(2,2,2-trifluoroethoxy)phenyl]-2,3-dihydro-1H-pyrrolo[3,4-c]pyridin-1-one] reads 85%. The result for `O=C1c2ccnc(-c3ccccc3OCC(F)(F)F)c2CN1c1ccc(C(O)(C(F)(F)F)C(F)(F)F)cc1` [Example 260, 2-[4-(1,1,1,3,3,3-hexafluoro-2-hydroxypropan-2-yl)phenyl]-4-[2-(2,2,2-trifluoroethoxy)phenyl]-2,3-dihydro-1H-pyrrolo[3,4-c]pyridin-1-one] reads 100%. Turning to `O=C(C1CC1)N1CC(O)(c2ccc(N3Cc4c(ccnc4-c4ccccc4OCC(F)(F)F)C3=O)cc2)C1` [Example 261, 2-{4-[1-(cyclopropanecarbonyl)-3-hydroxyazetidin-3-yl]phenyl}-4-[2-(2,2,2-trifluoroethoxy)phenyl]-2,3-dihydro-1H-pyrrolo[3,4-c]pyridin-1-one], the inhibition at 10 µM was determined as 93%. The result for `CC(C)(O)c1ccc(N2Cc3c(ccnc3-c3ccccc3OCC(F)(F)F)C2=O)cc1F` [Example 262, 2-[3-fluoro-4-(2-hydroxypropan-2-yl)phenyl]-4-[2-(2,2,2-trifluoroethoxy)phenyl]-2,3-dihydro-1H-pyrrolo[3,4-c]pyridin-1-one] reads 100%. `O=C1c2ccnc(-c3ccccc3OCC(F)(F)F)c2CN1c1ccc(C2(O)CC2)cn1` [Example 265, 2-[5-(1-hydroxycyclopropyl)pyridin-2-yl]-4-[2-(2,2,2-trifluoroethoxy)phenyl]-2,3-dihydro-1H-pyrrolo[3,4-c]pyridin-1-one]: the inhibition at 10 µM amounted to 100%. The result for `CC(C)(C)[Si](C)(C)OC1(c2ccc(N3Cc4c(ccnc4-c4ccccc4OCC(F)(F)F)C3=O)nc2)CC1` [Example 266, 2-[5-(1-{[tert-butyl(dimethyl)silyl]oxy}cyclopropyl)pyridin-2-yl]-4-[2-(2,2,2-trifluoroethoxy)phenyl]-2,3-dihydro-1H-pyrrolo[3,4-c]pyridin-1-one] reads 99%; that for `O=C1c2ccnc(-c3ccc(F)cc3OCC(F)F)c2CN1c1ccc(C2(O)CCC2)cc1` [Example 267, 4-[2-(2,2-difluoroethoxy)-4-fluorophenyl]-2-[4-(1-hydroxycyclobutyl)phenyl]-2,3-dihydro-1H-pyrrolo[3,4-c]pyridin-1-one], 99%; that for `CS(=O)(=O)c1ccc(N2Cc3c(ccnc3-c3ccccc3OCC(F)(F)F)C2=O)nc1` [Example 268, 2-[5-(methanesulfonyl)pyridin-2-yl]-4-[2-(2,2,2-trifluoroethoxy)phenyl]-2,3-dihydro-1H-pyrrolo[3,4-c]pyridin-1-one], 91%. The result for `CC(C)(C#N)c1ccc(N2Cc3c(ccnc3-c3ccc(F)cc3OCC(F)(F)F)C2=O)cc1` [Example 269, 2-(4-{4-[4-fluoro-2-(2,2,2-trifluoroethoxy)phenyl]-1-oxo-1,3-dihydro-2H-pyrrolo[3,4-c]pyridin-2-yl}phenyl)-2-methylpropanenitrile] reads 99%; that for `O=C1c2ccnc(-c3ccc(F)cc3OCC(F)(F)F)c2CN1c1ccc(C(O)(C(F)(F)F)C(F)(F)F)cc1` [Example 270, 4-[4-fluoro-2-(2,2,2-trifluoroethoxy)phenyl]-2-[4-(1,1,1,3,3,3-hexafluoro-2-hydroxypropan-2-yl)phenyl]-2,3-dihydro-1H-pyrrolo[3,4-c]pyridin-1-one], 99%; that for `N#CC1(c2ccc(N3Cc4c(ccnc4-c4ccccc4OCC(F)(F)F)C3=O)cc2)CC1` [Example 271, 1-(4-{1-oxo-4-[2-(2,2,2-trifluoroethoxy)phenyl]-1,3-dihydro-2H-pyrrolo[3,4-c]pyridin-2-yl}phenyl)cyclopropane-1-carbonitrile], 100%.

In the case of `CC(C)(O)c1ccc(N2Cc3c(ccnc3-c3ccncc3OCC(F)(F)F)C2=O)cc1F` [Example 272, 2-[3-fluoro-4-(2-hydroxypropan-2-yl)phenyl]-4-[3-(2,2,2-trifluoroethoxy)pyridin-4-yl]-2,3-dihydro-1H-pyrrolo[3,4-c]pyridin-1-one], the inhibition at 10 µM came to 96%. The result for `CC(C)(O)c1ccc(N2Cc3c(ccnc3-c3ccccc3OCC(F)(F)F)C2=O)nc1` [Example 273, 2-[5-(2-hydroxypropan-2-yl)pyridin-2-yl]-4-[2-(2,2,2-trifluoroethoxy)phenyl]-2,3-dihydro-1H-pyrrolo [3,4-c]pyridin-1-one] reads 100%. With `CC(C)(O)c1ccc(N2Cc3c(ccnc3-c3ccc(F)cc3OCC(F)F)C2=O)cc1F` [Example 274, 4-[2-(2,2-difluoroethoxy)-4-fluorophenyl]-2-[3-fluoro-4-(2-hydroxypropan-2-yl)phenyl]-2,3-dihydro-1H-pyrrolo[3,4-c]pyridin-1-one], the inhibition at 10 µM amounted to 97%. For `CC(C)(O)c1ccc(N2Cc3c(ccnc3-c3ccncc3OCC(F)(F)F)C2=O)nc1` [Example 275, 2-[5-(2-hydroxypropan-2-yl)pyridin-2-yl]-4-[3-(2,2,2-trifluoroethoxy)pyridin-4-yl]-2,3-dihydro-1H-pyrrolo [3,4-c]pyridin-1-one], the inhibition at 10 µM is 94%. The result for `CC(C)(O)C(F)(F)c1ccc(N2Cc3c(ccnc3-c3ccncc3OCC(F)(F)F)C2=O)cc1` [Example 283, 2-[4-(1,1-difluoro-2-hydroxy-2-methylpropyl)phenyl]-4-[3-(2,2,2-trifluoroethoxy)pyridin-4-yl]-2,3-dihydro-1H-pyrrolo[3,4-c] pyridin-1-one] reads 94%; that for `O=C1c2ccnc(-c3ccncc3OCC(F)(F)F)c2CN1c1ccc(C(O)(C(F)F)C(F)F)cc1` [Example 284, 2-[4-(1,1,3,3-tetrafluoro-2-hydroxypropan-2-yl)phenyl]-4-[3-(2,2,2-trifluoroethoxy)pyridin-4-yl]-2,3-dihydro-1H-pyrrolo[3,4-c] pyridin-1-one], 99%. The result for `O=C1c2ccnc(-c3ccncc3OCC(F)(F)F)c2CN1c1ccc(C2(O)CC(F)(F)C2)c(F)c1` [Example 287, 2-[4-(3,3-difluoro-1-hydroxycyclobutyl)-3-fluorophenyl]-4-[3-(2,2,2-trifluoroethoxy)pyridin-4-yl]-2,3-dihydro-1H-pyrrolo[3,4-c] pyridin-1-one] reads 99%; that for `CC(C)(O)c1ccc(N2Cc3c(ccnc3-c3ccccc3OCC(F)F)C2=O)nc1` [Example 288, 4-[2-(2,2-difluoroethoxy)phenyl]-2-[5-(2-hydroxypropan-2-yl)pyridin-2-yl]-2,3-dihydro-1H-pyrrolo [3,4-c]pyridin-1-one], 99%; that for `CC(C)(O)c1ccc(N2Cc3c(ccnc3-c3ccc(F)cc3OCC(F)F)C2=O)nc1` [Example 289, 4-[2-(2,2-difluoroethoxy)-4-fluorophenyl]-2-[5-(2-hydroxypropan-2-yl)pyridin-2-yl]-2,3-dihydro-1H-pyrrolo [3,4-c]pyridin-1-one], 98%. As to `O=C1c2ccnc(-c3ccccc3OCC(F)F)c2CN1c1ccc(C2(O)CCC2)cc1` [Example 290, 4-[2-(2,2-difluoroethoxy)phenyl]-2-[4-(1-hydroxycyclobutyl)phenyl]-2,3-dihydro-1H-pyrrolo[3,4-c] pyridin-1-one], the inhibition at 10 µM turned out to be 100%.

Take `CC(C)(O)C(F)(F)c1ccc(N2Cc3c(ccnc3-c3ccc(F)cc3OCC(F)(F)F)C2=O)cn1` [Example 291, 2-[6-(1,1-difluoro-2-hydroxy-2-methylpropyl)pyridin-3-yl]-4-[4-fluoro-2-(2,2,2-trifluoroethoxy)phenyl]-2,3-dihydro-1H-pyrrolo[3,4-c]pyridin-1-one]: the inhibition at 10 µM turned out to be 79%. The result for `O=C1c2ccnc(-c3ccncc3OCC(F)(F)F)c2CN1c1ccc(C2(F)COC2)cc1` [Example 294, 2-[4-(3-fluorooxetan-3-yl)phenyl]-4-[3-(2,2,2-trifluoroethoxy)pyridin-4-yl]-2,3-dihydro-1H-pyrrolo [3,4-c]pyridin-1-one] reads 99%; that for `CC(C)(O)COc1ccc(N2Cc3c(ccnc3-c3ccccc3OCC(F)(F)F)C2=O)nc1` [Example 297, 2-[5-(2-hydroxy-2-methylpropoxy)pyridin-2-yl]-4-[2-(2,2,2-trifluoroethoxy)phenyl]-2,3-dihydro-1H-pyrrolo[3,4-c]pyridin-1-one], 100%.
